These results are taken from US20190022225A1, “PROTOCOL FOR INCREASING LIFE EXPECTANCY IN A TEST SUBJECT” (Mayo Foundation for Medical Education and Research, priority 2015, published 2019).

This experiment deals with LDLR−/−/3MR double transgenic mice fed a HFD. The experiment can be described thus: Atherosclerosis model, LDLR-/-/3MR double transgenic mice on HFD, ganciclovir weeks 12-13 and 14-15. Format: in vivo, mouse. The following applies: 25 mg/kg ip; versus LDLR−/−/HFD controls. Here is the method:
The study illustrated in FIG. 43B assessed the extent to which […] based clearance of senescent cells from LDLR^−/− /3MR double transgenic mice improves pre-existing atherogenic disease. LDLR^−/− MR double transgenic mice (10 weeks) and LDLR^−/− single transgenic mice (10 weeks) are fed a high fat diet beginning at Week 0 until Week 12. Gancyclovir is administered to both groups of mice (25 mg/kg intraperitoneally) from weeks 12-13 and weeks 14-15. At week 16, the level of plaque and the number of senescent cells in the plaques are determined.

On to `Nc1nc(O)c2ncn(COC(CO)CO)c2n1` [ganciclovir], for which the “% of the aorta covered with plaque” value was “reduces the % of the aorta covered with plaque” and the plaque cross-sectional area entry was “reduced the plaque cross-sectional area”.
